Data reported in patent EP4745135A1 (Gluetacs Therapeutics (Shanghai) Co., Ltd., priority 2023, dated 2025).

Key:
CK1α = target: T1, CK1α (Homo sapiens, UniProt P48729+Q96SW2); assay: Western blot, degradation of substrate protein in hPBMCs; type: cell-based
T1 construct: effects of the compounds of the present disclosure on the expression of target proteins in cells; endogenous in cells; host or cells: human PBMCs (Milecell Biotechnologies)

IKZF1 = target: T2, IKZF1 (Homo sapiens, UniProt Q13422+Q96SW2); assay: as above; type: cell-based
T2 construct: effects of the compounds of the present disclosure on the expression of target proteins in cells; endogenous in cells; host or cells: human PBMCs (Milecell Biotechnologies)

IKZF2 = target: T3, IKZF2 (Homo sapiens, UniProt Q96SW2+Q9UKS7); assay: as above; type: cell-based
T3 construct: effects of the compounds of the present disclosure on the expression of target proteins in cells; endogenous in cells; host or cells: human PBMCs (Milecell Biotechnologies)

IKZF3 = target: T4, IKZF3 (Homo sapiens, UniProt Q96SW2+Q9UKT9); assay: as above; type: cell-based
T4 construct: effects of the compounds of the present disclosure on the expression of target proteins in cells; endogenous in cells; host or cells: human PBMCs (Milecell Biotechnologies)

WEE1 = target: T5, WEE1 (Homo sapiens, UniProt P30291+Q96SW2); assay: as above; type: cell-based
T5 construct: effects of the compounds of the present disclosure on the expression of target proteins in cells; endogenous in cells; host or cells: human PBMCs (Milecell Biotechnologies)

GSPT1 = assay: as above; type: cell-based, Human
[1] = target: T6, human Cereblon WT GST-tagged protein (Homo sapiens, UniProt Q96SW2); assay: CRBN-binding affinity, HTRF (CEREBLON BINDING kit); settings: for inhibition at 0.5 µM: read-out: Inhibition Rate at 0.5 µM (%); for inhibition at 2 µM: read-out: Inhibition Rate at 2 µM (%)
T6 construct: purchased CISBIO 64BDCRBNPEH

[2] = system: Human multiple myeloma cell (MM.1S); assay: Tumor cell proliferation inhibition (CellTiter-Meiluncell luminescent cell viability assay); settings: Homo sapiens, MM1.S, 96 h; for inhibition at 0.01 µM: read-out: Inhibition Rate at 10 nM (%); for inhibition at 0.5 µM: read-out: Inhibition Rate at 500 nM (%)
[3] = system: Human multiple myeloma peripheral blood B lymphocyte cell (RPMI-8226); assay: as above; settings: RPMI-8226, 96 h; for inhibition at 0.01 µM: read-out: Inhibition Rate at 10 nM (%); for inhibition at 0.5 µM: read-out: Inhibition Rate at 500 nM (%)
Experimental: (§1) The tumor cells used herein were cultured in a cell culture medium listed in table 2 at 37°C in an incubator with 5% CO2. Prior to experimentation, all cell lines used were correctly identified by STR profiling, and tested negative for mycoplasma contamination using a mycoplasma detection kit through routine screenings.
(§2) The IC50 values of the compounds of the present disclosure (including the compounds in Table 1 and Examples) were determined using the CellTiter-Meiluncell Luminescent Cell Viability Assay Kit from Dalian Meilun Biotech Co., Ltd. The detailed procedure is as follows: Tumor cells were seeded in 96-well cell culture plates at the densities specified in Table 3. On the following day, the test compounds of the present disclosure were subjected to serial dilution. The dilution can be performed according to one of the following two methods: • (1) The first dilution method: The test compounds of the present disclosure (including the compounds in Table 1 and Examples) were subjected to 5-fold serial dilutions starting from a highest concentration of 2000 µM, resulting in a total of 9 concentrations from high to low (2000, 400, 80, 16, 3.2, 0.64, 0.128, 0.0256, 0.00512 µM). Subsequently, 0.5 µL of the test compound dilution was transferred into the 96-well plate containing the cells, with each well containing 100 µL of cell culture medium. […] Into the 96-well plate, the diluted test compounds and corresponding detection reagents were added, resulting in final test compound concentrations of 500 nM and 10 nM, respectively. The experimental procedure is described below using the diluted 2 µM test compound as an example.
(§3) 0.5 µL of the aforementioned diluted compound of the present disclosure (including the compounds in Table 1 and Examples) was added to the seeded cells in 100 µL of medium, yielding a final test compound concentration of 10 nM. After the cells were treated with the compounds of the present disclosure for a specified period, the cell viability assay reagent was added to the culture medium according to the kit's instructions to determine cell viability. […] All controls were treated using the same procedure as the compounds of the present disclosure. The growth inhibition curves for the compounds of the present disclosure were plotted using Prism GraphPad software, and the IC50 values were calculated therefrom.

[4] = system: Human acute T lymphocytic leukemia cell (Molt4); assay: as above; settings: MOLT-4, 96 h; for inhibition at 0.01 µM: read-out: Inhibition Rate at 10 nM (%); for inhibition at 0.5 µM: read-out: Inhibition Rate at 500 nM (%)
[5] = system: Human myeloid monocytic leukemia cell (MV-4-11); assay: as above; settings: MV4-11, 96 h; for inhibition at 0.01 µM: read-out: Inhibition Rate at 10 nM (%); for inhibition at 0.5 µM: read-out: Inhibition Rate at 500 nM (%)
Experimental: as §1, §2, §3

[6] = system: Human breast cancer cell (MCF-7); assay: as above; settings: MCF7, 96 h; for inhibition at 0.01 µM: read-out: Inhibition Rate at 10 nM (%); for inhibition at 0.5 µM: read-out: Inhibition Rate at 500 nM (%)
[7] = Western blot, 24 hours of compound treatment, compounds tested at 50 nM and 500 nM (concentration for the table not stated)
[8] = 24 hours treatment, compounds at 50 nM and 500 nM (concentration behind the class not stated)

T1 sequence (P48729 whole entry): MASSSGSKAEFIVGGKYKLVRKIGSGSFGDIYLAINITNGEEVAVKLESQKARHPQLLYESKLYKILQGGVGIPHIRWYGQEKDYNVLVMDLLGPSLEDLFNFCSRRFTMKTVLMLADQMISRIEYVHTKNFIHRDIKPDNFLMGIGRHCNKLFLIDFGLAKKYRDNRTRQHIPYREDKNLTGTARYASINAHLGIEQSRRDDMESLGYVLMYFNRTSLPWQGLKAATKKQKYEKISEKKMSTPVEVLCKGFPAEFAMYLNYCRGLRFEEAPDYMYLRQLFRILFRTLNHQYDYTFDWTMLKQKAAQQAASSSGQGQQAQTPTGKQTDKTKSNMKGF
T1 sequence (Q96SW2 whole entry): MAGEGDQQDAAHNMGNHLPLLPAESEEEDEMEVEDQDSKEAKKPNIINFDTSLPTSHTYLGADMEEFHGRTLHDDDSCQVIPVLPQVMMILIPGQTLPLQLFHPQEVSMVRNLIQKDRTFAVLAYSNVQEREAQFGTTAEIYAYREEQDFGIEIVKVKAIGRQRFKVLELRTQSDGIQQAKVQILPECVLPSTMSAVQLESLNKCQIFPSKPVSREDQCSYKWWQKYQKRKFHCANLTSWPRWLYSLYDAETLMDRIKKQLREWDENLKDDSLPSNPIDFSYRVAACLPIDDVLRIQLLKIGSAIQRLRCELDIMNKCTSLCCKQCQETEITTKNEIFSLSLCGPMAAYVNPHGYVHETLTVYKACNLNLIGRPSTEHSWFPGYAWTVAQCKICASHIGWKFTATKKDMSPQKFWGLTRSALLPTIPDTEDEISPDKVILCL
T1 sequence (Q16531 whole entry partner): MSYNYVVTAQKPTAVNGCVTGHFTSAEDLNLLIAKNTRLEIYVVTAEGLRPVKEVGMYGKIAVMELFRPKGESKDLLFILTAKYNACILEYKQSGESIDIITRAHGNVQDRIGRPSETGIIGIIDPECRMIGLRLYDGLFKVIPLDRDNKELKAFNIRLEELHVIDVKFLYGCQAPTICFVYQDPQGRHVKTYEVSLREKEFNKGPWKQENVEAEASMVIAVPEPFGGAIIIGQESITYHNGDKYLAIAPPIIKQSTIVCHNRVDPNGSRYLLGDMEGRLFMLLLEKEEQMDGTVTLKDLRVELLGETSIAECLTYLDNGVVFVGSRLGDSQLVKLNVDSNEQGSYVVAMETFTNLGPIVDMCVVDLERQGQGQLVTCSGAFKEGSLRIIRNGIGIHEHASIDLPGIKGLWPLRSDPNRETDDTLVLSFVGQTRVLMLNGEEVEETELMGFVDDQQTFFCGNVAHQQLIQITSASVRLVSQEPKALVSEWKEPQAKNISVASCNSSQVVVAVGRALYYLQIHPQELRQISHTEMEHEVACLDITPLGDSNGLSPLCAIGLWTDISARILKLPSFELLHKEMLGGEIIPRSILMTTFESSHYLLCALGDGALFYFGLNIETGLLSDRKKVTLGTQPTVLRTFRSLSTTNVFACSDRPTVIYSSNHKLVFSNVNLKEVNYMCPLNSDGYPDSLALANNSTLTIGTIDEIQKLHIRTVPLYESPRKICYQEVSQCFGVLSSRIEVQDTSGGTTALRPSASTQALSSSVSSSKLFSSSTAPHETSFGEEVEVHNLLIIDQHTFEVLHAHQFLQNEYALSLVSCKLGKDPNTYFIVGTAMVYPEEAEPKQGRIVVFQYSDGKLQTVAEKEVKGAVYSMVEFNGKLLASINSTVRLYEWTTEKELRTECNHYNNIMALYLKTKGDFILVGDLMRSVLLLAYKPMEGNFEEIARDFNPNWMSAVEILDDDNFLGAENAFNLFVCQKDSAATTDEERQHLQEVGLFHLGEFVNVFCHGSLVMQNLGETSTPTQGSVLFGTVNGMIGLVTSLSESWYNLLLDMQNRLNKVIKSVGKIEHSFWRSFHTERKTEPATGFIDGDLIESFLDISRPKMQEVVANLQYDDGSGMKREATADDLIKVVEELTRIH
T6 sequence (Q96SW2 whole entry): as the sequence (Q96SW2 whole entry) above
T5 sequence (P30291 whole entry): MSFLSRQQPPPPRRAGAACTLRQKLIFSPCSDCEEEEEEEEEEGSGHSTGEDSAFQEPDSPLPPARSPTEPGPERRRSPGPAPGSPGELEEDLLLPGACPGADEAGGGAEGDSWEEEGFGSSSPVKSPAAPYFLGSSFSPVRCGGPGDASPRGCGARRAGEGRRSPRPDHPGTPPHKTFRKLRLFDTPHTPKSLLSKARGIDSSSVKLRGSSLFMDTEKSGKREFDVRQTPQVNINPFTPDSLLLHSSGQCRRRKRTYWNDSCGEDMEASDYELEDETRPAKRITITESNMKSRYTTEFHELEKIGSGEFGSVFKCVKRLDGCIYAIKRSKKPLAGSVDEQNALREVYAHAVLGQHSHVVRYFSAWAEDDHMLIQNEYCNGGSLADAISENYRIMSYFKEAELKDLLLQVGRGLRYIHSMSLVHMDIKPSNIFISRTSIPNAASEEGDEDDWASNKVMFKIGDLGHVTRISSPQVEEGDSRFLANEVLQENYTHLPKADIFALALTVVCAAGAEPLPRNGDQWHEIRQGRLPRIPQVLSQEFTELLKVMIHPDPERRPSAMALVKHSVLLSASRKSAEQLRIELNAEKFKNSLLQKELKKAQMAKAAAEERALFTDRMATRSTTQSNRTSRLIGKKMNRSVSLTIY
T5 sequence (Q96SW2 whole entry): as the sequence (Q96SW2 whole entry) above
T5 sequence (Q16531 whole entry partner): as the sequence (Q16531 whole entry partner) above
T4 sequence (Q9UKT9 whole entry): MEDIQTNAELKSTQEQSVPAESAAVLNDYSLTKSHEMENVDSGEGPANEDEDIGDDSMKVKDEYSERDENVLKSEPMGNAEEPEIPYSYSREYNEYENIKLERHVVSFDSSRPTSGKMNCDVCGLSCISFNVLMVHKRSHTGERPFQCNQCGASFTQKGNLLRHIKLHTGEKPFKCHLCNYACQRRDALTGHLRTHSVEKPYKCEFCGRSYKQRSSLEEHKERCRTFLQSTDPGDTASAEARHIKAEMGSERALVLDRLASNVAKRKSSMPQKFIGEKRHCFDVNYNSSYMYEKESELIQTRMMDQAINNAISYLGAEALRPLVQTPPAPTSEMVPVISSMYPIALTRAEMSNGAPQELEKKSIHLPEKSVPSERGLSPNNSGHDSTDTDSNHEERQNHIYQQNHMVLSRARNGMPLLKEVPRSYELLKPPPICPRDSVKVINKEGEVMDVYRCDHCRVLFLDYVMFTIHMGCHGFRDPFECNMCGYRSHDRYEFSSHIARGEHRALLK
T4 sequence (Q96SW2 whole entry): as the sequence (Q96SW2 whole entry) above
T4 sequence (Q16531 whole entry partner): as the sequence (Q16531 whole entry partner) above
T2 sequence (Q13422 whole entry): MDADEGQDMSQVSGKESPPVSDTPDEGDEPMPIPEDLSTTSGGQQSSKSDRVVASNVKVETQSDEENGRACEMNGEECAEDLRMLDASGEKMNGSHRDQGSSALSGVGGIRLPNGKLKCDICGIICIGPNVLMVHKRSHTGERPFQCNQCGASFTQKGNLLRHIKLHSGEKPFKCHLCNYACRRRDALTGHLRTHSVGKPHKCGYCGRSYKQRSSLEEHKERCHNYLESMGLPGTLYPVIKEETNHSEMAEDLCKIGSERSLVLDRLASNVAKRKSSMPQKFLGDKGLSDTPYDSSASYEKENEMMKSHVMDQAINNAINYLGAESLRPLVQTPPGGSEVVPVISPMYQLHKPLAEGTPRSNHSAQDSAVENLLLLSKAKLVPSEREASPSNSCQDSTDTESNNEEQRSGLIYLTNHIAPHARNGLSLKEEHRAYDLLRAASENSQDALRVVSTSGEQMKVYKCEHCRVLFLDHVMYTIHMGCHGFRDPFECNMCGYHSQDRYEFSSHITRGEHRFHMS
T2 sequence (Q96SW2 whole entry): as the sequence (Q96SW2 whole entry) above
T2 sequence (Q16531 whole entry partner): as the sequence (Q16531 whole entry partner) above
T3 sequence (Q9UKS7 whole entry): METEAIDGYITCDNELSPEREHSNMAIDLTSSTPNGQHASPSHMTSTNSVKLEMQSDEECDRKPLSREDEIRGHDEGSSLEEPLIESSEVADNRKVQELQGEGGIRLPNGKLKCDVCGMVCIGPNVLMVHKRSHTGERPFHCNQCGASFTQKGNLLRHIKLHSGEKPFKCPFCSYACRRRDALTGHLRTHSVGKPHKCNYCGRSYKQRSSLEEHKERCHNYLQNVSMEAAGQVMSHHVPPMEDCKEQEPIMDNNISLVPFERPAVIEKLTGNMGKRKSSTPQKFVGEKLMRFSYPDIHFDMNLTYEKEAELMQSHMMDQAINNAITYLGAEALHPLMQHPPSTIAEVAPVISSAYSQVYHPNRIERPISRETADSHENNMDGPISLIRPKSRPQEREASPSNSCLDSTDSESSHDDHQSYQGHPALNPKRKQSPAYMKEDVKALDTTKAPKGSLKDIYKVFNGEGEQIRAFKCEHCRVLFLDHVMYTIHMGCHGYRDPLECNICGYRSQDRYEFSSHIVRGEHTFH
T3 sequence (Q96SW2 whole entry): as the sequence (Q96SW2 whole entry) above
T3 sequence (Q16531 whole entry partner): as the sequence (Q16531 whole entry partner) above

Row | Compound | CK1α substrate protein remaining % (CK1α; [7]) | IKZF 1 substrate protein remaining % (IKZF1; [7]) | IKZF2 substrate protein remaining % (IKZF2; [7]) | IKZF3 substrate protein remaining % (IKZF3; [7]) | Wee1 substrate protein remaining % (WEE1; [7]) | GSPT1 substrate protein remaining % (GSPT1; [7]) | inhibition at 0.5 µM [1] [%] | inhibition at 2 µM [1] [%] | inhibition at 0.01 µM [2] [%] | inhibition at 0.5 µM [2] [%] | inhibition at 0.01 µM [3] [%] | inhibition at 0.5 µM [3] [%] | inhibition at 0.01 µM [4] [%] | inhibition at 0.5 µM [4] [%] | inhibition at 0.01 µM [5] [%] | inhibition at 0.5 µM [5] [%] | inhibition at 0.01 µM [6] [%] | inhibition at 0.5 µM [6] [%] | CK1α substrate protein remaining % (CK1α; [8]) | IKZF 1 substrate protein remaining % (IKZF1; [8]) | further results
1 | O=C1CCC(N2Cc3cc(CN4CC=C(c5cncc(Cl)c5)CC4)ccc3C2=S)C(=O)N1 (stereo not shown) [GT-08490, 3-(5-((5-chloro-3',6'-dihydro-[3,4'-bipyridin]-1'(2'H)-yl)methyl)-1-thioxoisoindolin-2-yl)piperidine-2,6-dione] | B (80%< substrate protein remaining %≤ 100%) | B (80%< substrate protein remaining %≤ 100%) | A (0% ≤ substrate protein remaining % ≤ 80%) | A (0% ≤ substrate protein remaining % ≤ 80%) | A (0% ≤ substrate protein remaining % ≤ 80%) | A (0% ≤ substrate protein remaining % ≤ 80%) | 60 to 80 | 80 to 100 | 50 to 60 | 80 to 100 | 20 to 30 | 70 to 80 | 0 to 5 | 80 to 100 | 40 to 60 | 80 to 100 | 30 to 40 | 50 to 60 | – | – | –
2 | O=C1CCC(N2Cc3cc(CN4CCN(c5n[nH]c6cc(F)ccc56)CC4)ccc3C2=S)C(=O)N1 (stereo not shown) [GT-09260, 3-(5-((4-(6-fluoro-1H-indazol-3-yl)piperazin-1-yl)methyl)-1-thioxoisoindolin-2-yl)piperidine-2,6-dione] | – | – | – | – | – | – | 60 to 80 | 80 to 100 | 10 to 20 | 80 to 100 | 5 to 10 | 40 to 50 | 20 to 30 | 80 to 100 | 18 to 25 | 80 to 100 | – | – | B (80%< substrate protein remaining %≤ 100%) | B (80%< substrate protein remaining %≤ 100%) | IKZF2 substrate protein remaining % (IKZF2; [8]): B (80%< substrate protein remaining %≤ 100%); IKZF3 substrate protein remaining % (IKZF3; [8]): B (80%< substrate protein remaining %≤ 100%); Wee1 substrate protein remaining % (WEE1; [8]): B (80%< substrate protein remaining %≤ 100%); GSPT1 substrate protein remaining % (GSPT1; [8]): A (0% ≤ substrate protein remaining % ≤ 80%)
3 | O=C1CCC(N2Cc3cc(CN4CC=C(c5ccnc(Cl)c5Cl)CC4)ccc3C2=S)C(=O)N1 (stereo not shown) [GT-08482, 3-(5-((2',3'-dichloro-3,6-dihydro-[4,4'-bipyridin]-1(2H)-yl)methyl)-1-thioxoisoindolin-2-yl)piperidine-2,6-dione] | B (80%< substrate protein remaining %≤ 100%) | B (80%< substrate protein remaining %≤ 100%) | B (80%< substrate protein remaining %≤ 100%) | B (80%< substrate protein remaining %≤ 100%) | A (0% ≤ substrate protein remaining % ≤ 80%) | A (0% ≤ substrate protein remaining % ≤ 80%) | 60 to 80 | 80 to 100 | 50 to 60 | 80 to 100 | 10 to 20 | 60 to 70 | -5 to 0 | 80 to 100 | 40 to 60 | 80 to 100 | – | – | – | – | –
4 | O=C1CCC(N2Cc3cc(CN4CC=C(c5n[nH]c6cc(F)ccc56)CC4)ccc3C2=S)C(=O)N1 (stereo not shown) [GT-09270, 3-(5-((4-(6-fluoro-1H-indazol-3-yl)-3,6-dihydropyridin-1(2H)-yl)methyl)-1-thioxoisoindolin-2-yl)piperidine-2,6-dione] | – | – | – | – | – | – | 60 to 80 | 80 to 100 | 50 to 60 | 80 to 100 | 20 to 30 | 70 to 80 | 70 to 80 | 80 to 100 | 80 to 100 | 80 to 100 | 10 to 20 | 70 to 80 | A (0% ≤ substrate protein remaining % ≤ 80%) | A (0% ≤ substrate protein remaining % ≤ 80%) | IKZF2 substrate protein remaining % (IKZF2; [8]): B (80%< substrate protein remaining %≤ 100%); IKZF3 substrate protein remaining % (IKZF3; [8]): B (80%< substrate protein remaining %≤ 100%); Wee1 substrate protein remaining % (WEE1; [8]): A (0% ≤ substrate protein remaining % ≤ 80%); GSPT1 substrate protein remaining % (GSPT1; [8]): B (80%< substrate protein remaining %≤ 100%)
5 | O=C1CCC(N2Cc3cc(CN4CC=C(c5cccc6c(F)cccc56)CC4)ccc3C2=S)C(=O)N1 (stereo not shown) [GT-09276, 3-(5-((4-(5-fluoronaphthalen-1-yl)-3,6-dihydropyridin-1(2H)-yl)methyl)-1-thioxoisoindolin-2-yl)piperidine-2,6-dione] | – | – | – | – | – | – | 40 to 53 | 80 to 100 | 70 to 80 | 80 to 100 | 20 to 30 | 70 to 80 | 70 to 80 | 70 to 80 | 80 to 100 | 80 to 100 | 30 to 40 | 80 to 100 | A (0% ≤ substrate protein remaining % ≤ 80%) | B (80%< substrate protein remaining %≤ 100%) | IKZF2 substrate protein remaining % (IKZF2; [8]): A (0% ≤ substrate protein remaining % ≤ 80%); IKZF3 substrate protein remaining % (IKZF3; [8]): A (0% ≤ substrate protein remaining % ≤ 80%); Wee1 substrate protein remaining % (WEE1; [8]): A (0% ≤ substrate protein remaining % ≤ 80%); GSPT1 substrate protein remaining % (GSPT1; [8]): A (0% ≤ substrate protein remaining % ≤ 80%)
6 | O=C1CCC(N2Cc3cc(CN4CCN(c5cccc(Br)c5)CC4)ccc3C2=S)C(=O)N1 (stereo not shown) [GT-08238, 3-(5-((4-(3-bromophenyl)piperazin-1-yl)methyl)-1-thioxoisoindolin-2-yl)piperidine-2,6-dione] | B (80%< substrate protein remaining %≤ 100%) | B (80%< substrate protein remaining %≤ 100%) | B (80%< substrate protein remaining %≤ 100%) | B (80%< substrate protein remaining %≤ 100%) | B (80%< substrate protein remaining %≤ 100%) | A (0% ≤ substrate protein remaining % ≤ 80%) | 53 to 60 | 80 to 100 | 70 to 80 | 70 to 80 | 20 to 30 | 50 to 60 | 30 to 40 | 80 to 100 | 5 to 10 | 80 to 100 | – | – | – | – | –
7 | Cc1cccc(N2CCN(Cc3ccc4c(c3)CN(C3CCC(=O)NC3=O)C4=S)CC2)c1 (stereo not shown) [GT-08602, 3-(1-thioxo-5-((4-(m-tolyl)piperazin-1-yl)methyl)isoindolin-2-yl)piperidine-2,6-dione] | B (80%< substrate protein remaining %≤ 100%) | B (80%< substrate protein remaining %≤ 100%) | B (80%< substrate protein remaining %≤ 100%) | B (80%< substrate protein remaining %≤ 100%) | A (0% ≤ substrate protein remaining % ≤ 80%) | A (0% ≤ substrate protein remaining % ≤ 80%) | 40 to 53 | 80 to 100 | 10 to 20 | 80 to 100 | 10 to 20 | 70 to 80 | -5 to 0 | 80 to 100 | 18 to 25 | 80 to 100 | – | – | – | – | –
